Experimental data reported in PubChem BioAssay AID2060620 (Molecular Pharmacology Branch, DTP, NCI, 2025).

System: 328373-195-R-J1-PDC complex spheroids, viability % test/control
Test: Anticancer human tumor 328373-195-R-J1-PDC patient-derived head and neck squamous carcinoma cell line growth inhibition [CLK]
Conditions: for IC50: curve of first compound; for viability, T/C: stronger effect = lower value
Outline: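 Patient-derived tumor cells grown as complex spheroids with HUVEC endothelial cells and mesenchymal stem cells, treated with drug combinations. Concentrations descend in half-log steps from near clinical Cmax, or from 10 microM if Cmax unknown.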

[1] = second compound 0.0316 µM, first compound 0.00949 µM
[2] = second compound 0.0316 µM, first compound 0.03 µM
[3] = second compound 0.0316 µM, first compound 0.0949 µM
[4] = second compound 0.0316 µM, first compound 0.3 µM
[5] = second compound 0.1 µM, first compound 0.00949 µM
[6] = second compound 0.1 µM, first compound 0.03 µM
[7] = second compound 0.1 µM, first compound 0.0949 µM
[8] = second compound 0.1 µM, first compound 0.3 µM
[9] = second compound 0.316 µM, first compound 0.00949 µM
[10] = second compound 0.316 µM, first compound 0.03 µM
[11] = second compound 0.316 µM, first compound 0.0949 µM
[12] = second compound 0.316 µM, first compound 0.3 µM
[13] = second compound 1 µM, first compound 0.00949 µM
[14] = second compound 1 µM, first compound 0.03 µM
[15] = second compound 1 µM, first compound 0.0949 µM
[16] = second compound 1 µM, first compound 0.3 µM
[17] = second compound 3.16 µM, first compound 0.00949 µM
[18] = second compound 3.16 µM, first compound 0.03 µM
[19] = second compound 3.16 µM, first compound 0.0949 µM
[20] = second compound 3.16 µM, first compound 0.3 µM
[21] = second compound 10 µM, first compound 0.00949 µM
[22] = second compound 10 µM, first compound 0.03 µM
[23] = second compound 10 µM, first compound 0.0949 µM
[24] = second compound 10 µM, first compound 0.3 µM
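Further: spheroids exposed to the agents for 7 days.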

`C=CC(=O)Nc1cc(Nc2nccc(-c3cn(C)c4ccccc34)n2)c(OC)cc1N(C)CCN(C)C` + CN1CCN(c2cc(C(=O)Nc3cc4cc(-c5cnn(C)c5)ccc4cn3)ccn2)CC1 gave an IC50 (second compound 0.0316 µM) greater than 300 nM, an IC50 (second compound 0.1 µM) greater than 300 nM and an IC50 (second compound 0.316 µM) of less than 0.949 nM. The IC50 (second compound 1 µM) was less than 0.949 nM, the IC50 (second compound 3.16 µM) was less than 0.949 nM and the IC50 (second compound 10 µM) was less than 0.949 nM. It also gave a viability, T/C (second compound 0.0316 µM, first compound 0.000949 µM) of 100%, a viability, T/C (second compound 0.0316 µM, first compound 0.003 µM) of 112% and a viability, T/C [1] of 99.2%. It also gave a viability, T/C [2] of 96.9%, a viability, T/C [3] of 98.7% and a viability, T/C [4] of 93.6%. For the same compound, the viability, T/C (second compound 0.1 µM, first compound 0.000949 µM) was 83.8%, the viability, T/C (second compound 0.1 µM, first compound 0.003 µM) was 88.1% and the viability, T/C [5] was 87.4%. The viability, T/C [6] was 90.7%, the viability, T/C [7] was 96% and the viability, T/C [8] was 69%. The viability, T/C (second compound 0.316 µM, first compound 0.000949 µM) was 30.1%, the viability, T/C (second compound 0.316 µM, first compound 0.003 µM) was 35% and the viability, T/C [9] was 30.1%. For the same compound, the viability, T/C [10] was 26.3%, the viability, T/C [11] was 26.6% and the viability, T/C [12] was 18.1%. The viability, T/C (second compound 1 µM, first compound 0.000949 µM) was 0.15%, the viability, T/C (second compound 1 µM, first compound 0.003 µM) was 0.25% and the viability, T/C [13] was 0.9%. It also gave a viability, T/C [14] of 0.25%, a viability, T/C [15] of 1.86% and a viability, T/C [16] of 1.95%. The viability, T/C (second compound 3.16 µM, first compound 0.000949 µM) was 1.21%, the viability, T/C (second compound 3.16 µM, first compound 0.003 µM) was 0.16% and the viability, T/C [17] was 0.17%. The viability, T/C [18] was 0.15%, the viability, T/C [19] was 4.52% and the viability, T/C [20] was 2.34%. It also gave a viability, T/C (second compound 10 µM, first compound 0.000949 µM) of 0.17%, a viability, T/C (second compound 10 µM, first compound 0.003 µM) of 0.21% and a viability, T/C [21] of 1.31%. The viability, T/C [22] was 2.14%, the viability, T/C [23] was 3.21% and the viability, T/C [24] was 0.21%.

Compound `NC(=O)C(=Cn1cnc(-c2cc(C(F)(F)F)cc(C(F)(F)F)c2)n1)c1cncnc1` + CN1CCN(c2cc(C(=O)Nc3cc4cc(-c5cnn(C)c5)ccc4cn3)ccn2)CC1 has an IC50 (second compound 0.0316 µM) of 21.5 nM, an IC50 (second compound 0.1 µM) of 12.8 nM and an IC50 (second compound 0.316 µM) of less than 9.49 nM. For the same compound, the IC50 (second compound 1 µM) was less than 9.49 nM, the IC50 (second compound 3.16 µM) was less than 9.49 nM and the IC50 (second compound 10 µM) was less than 9.49 nM. It also gave a viability, T/C [1] of 78.8%, a viability, T/C [2] of 38.3% and a viability, T/C [3] of 1.11%. The viability, T/C [4] was 0.32%, the viability, T/C (second compound 0.0316 µM, first compound 0.949 µM) was 0.14% and the viability, T/C (second compound 0.0316 µM, first compound 3 µM) was 1.38%. For the same compound, the viability, T/C [5] was 56.7%, the viability, T/C [6] was 31.2% and the viability, T/C [7] was 0.33%. The viability, T/C [8] was 0.56%, the viability, T/C (second compound 0.1 µM, first compound 0.949 µM) was 0.08% and the viability, T/C (second compound 0.1 µM, first compound 3 µM) was 3.54%. It also gave a viability, T/C [9] of 13.3%, a viability, T/C [10] of 1.99% and a viability, T/C [11] of 1.27%. For the same compound, the viability, T/C [12] was 0.99%, the viability, T/C (second compound 0.316 µM, first compound 0.949 µM) was 0.07% and the viability, T/C (second compound 0.316 µM, first compound 3 µM) was 1.88%. It also gave a viability, T/C [13] of 0.09%, a viability, T/C [14] of 0.12% and a viability, T/C [15] of 2.09%. For the same compound, the viability, T/C [16] was 1.38%, the viability, T/C (second compound 1 µM, first compound 0.949 µM) was 2.09% and the viability, T/C (second compound 1 µM, first compound 3 µM) was 0.22%. The viability, T/C [17] was 0.24%, the viability, T/C [18] was 1.6% and the viability, T/C [19] was 0.1%. The viability, T/C [20] was 1.06%, the viability, T/C (second compound 3.16 µM, first compound 0.949 µM) was 0.12% and the viability, T/C (second compound 3.16 µM, first compound 3 µM) was 1.99%. For the same compound, the viability, T/C [21] was 1.81%, the viability, T/C [22] was 0.08% and the viability, T/C [23] was 0.93%. For the same compound, the viability, T/C [24] was 0.14%, the viability, T/C (second compound 10 µM, first compound 0.949 µM) was 1.29% and the viability, T/C (second compound 10 µM, first compound 3 µM) was 0.16%.

`Nc1ccccc1NC(=O)c1ccc(CNC(=O)OCc2cccnc2)cc1` + CN1CCN(c2cc(C(=O)Nc3cc4cc(-c5cnn(C)c5)ccc4cn3)ccn2)CC1 was tested, and the IC50 (second compound 0.0316 µM) was 706 nM, the IC50 (second compound 0.1 µM) was 641 nM and the IC50 (second compound 0.316 µM) was less than 31.6 nM. For the same compound, the IC50 (second compound 1 µM) was less than 31.6 nM, the IC50 (second compound 3.16 µM) was less than 31.6 nM and the IC50 (second compound 10 µM) was less than 31.6 nM. It also gave a viability, T/C (second compound 0.0316 µM, first compound 0.0316 µM) of 90.1%, a viability, T/C (second compound 0.0316 µM, first compound 0.1 µM) of 79.9% and a viability, T/C (second compound 0.0316 µM, first compound 0.316 µM) of 63.5%. For the same compound, the viability, T/C (second compound 0.0316 µM, first compound 1 µM) was 38.3%, the viability, T/C (second compound 0.0316 µM, first compound 3.16 µM) was 34.1% and the viability, T/C (second compound 0.0316 µM, first compound 10 µM) was 11.1%. It also gave a viability, T/C (second compound 0.1 µM, first compound 0.0316 µM) of 74.5%, a viability, T/C (second compound 0.1 µM, first compound 0.1 µM) of 80% and a viability, T/C (second compound 0.1 µM, first compound 0.316 µM) of 55.4%. The viability, T/C (second compound 0.1 µM, first compound 1 µM) was 40.8%, the viability, T/C (second compound 0.1 µM, first compound 3.16 µM) was 30% and the viability, T/C (second compound 0.1 µM, first compound 10 µM) was 7.09%. For the same compound, the viability, T/C (second compound 0.316 µM, first compound 0.0316 µM) was 26.5%, the viability, T/C (second compound 0.316 µM, first compound 0.1 µM) was 32.9% and the viability, T/C (second compound 0.316 µM, first compound 0.316 µM) was 22.5%. It also gave a viability, T/C (second compound 0.316 µM, first compound 1 µM) of 16.6%, a viability, T/C (second compound 0.316 µM, first compound 3.16 µM) of 8.58% and a viability, T/C (second compound 0.316 µM, first compound 10 µM) of 1.38%. It also gave a viability, T/C (second compound 1 µM, first compound 0.0316 µM) of 0.23%, a viability, T/C (second compound 1 µM, first compound 0.1 µM) of 1.09% and a viability, T/C (second compound 1 µM, first compound 0.316 µM) of 0.16%. For the same compound, the viability, T/C (second compound 1 µM, first compound 1 µM) was 0.08%, the viability, T/C (second compound 1 µM, first compound 3.16 µM) was 1.1% and the viability, T/C (second compound 1 µM, first compound 10 µM) was 2.52%. It also gave a viability, T/C (second compound 3.16 µM, first compound 0.0316 µM) of 0.07%, a viability, T/C (second compound 3.16 µM, first compound 0.1 µM) of 0.75% and a viability, T/C (second compound 3.16 µM, first compound 0.316 µM) of 1.64%. It also gave a viability, T/C (second compound 3.16 µM, first compound 1 µM) of 0.06%, a viability, T/C (second compound 3.16 µM, first compound 3.16 µM) of 0.07% and a viability, T/C (second compound 3.16 µM, first compound 10 µM) of 0.09%. The viability, T/C (second compound 10 µM, first compound 0.0316 µM) was 0.04%, the viability, T/C (second compound 10 µM, first compound 0.1 µM) was 1.05% and the viability, T/C (second compound 10 µM, first compound 0.316 µM) was 0.15%. The viability, T/C (second compound 10 µM, first compound 1 µM) was 0.1%, the viability, T/C (second compound 10 µM, first compound 3.16 µM) was 2.24% and the viability, T/C (second compound 10 µM, first compound 10 µM) was 0.16%.
